For three compounds, TGI results are on record in ChEMBL document CHEMBL1158870, “Antitumor agents. 180. Chemical Studies and cytotoxic evaluation of cumingianosides and cumindysoside A, antileukemic triterpene glucosides with a 14,18-cycloapotirucallane skeleton” (1997).

What all share (type): functional
One experiment concerns COLO 205. The experiment is described as follows: Cytotoxicity against human COLO205 cells by SRB assay.
The subject of the next experiment is HCC 2998. The experiment is described as follows: Cytotoxicity against human HCC2998 cells by SRB assay. Background: Sulforhodamine B stains cellular protein and so reports cell mass.
The next experiment has as its system HCT-116. The experiment is described as follows: Cytotoxicity against human HCT116 cells by SRB assay.
For a further experiment, the system named is HCT-15. The experiment in a line: Cytotoxicity against human HCT15 cells by SRB assay.
A further experiment deals with HT-29. The experiment in a line: Cytotoxicity against human HT29 cells by SRB assay.
For a further experiment, the system named is KM12. The experiment in a line: Cytotoxicity against human KM12 cells by SRB assay.
The next experiment relates to SW-620. The experiment is described as follows: Cytotoxicity against human SW620 cells by SRB assay.
A further experiment concerns Leukemia cell. The experiment is described as follows: Cytotoxicity against human Leukemia cells by SRB assay.
The subject of the next experiment is NSCLC. The experiment in a line: Cytotoxicity against human NSCLC cells by SRB assay.
Experiment [1] in a line: Cytotoxicity against human Colon cancer cells by SRB assay. Particulars: Cancer cell lines.
Experiment [2] is described as follows: Cytotoxicity against human CNS cancer cells by SRB assay. Particulars: Cancer cell lines.
A short description of experiment [3]: Cytotoxicity against human melanoma cells by SRB assay. Particulars: Melanoma cell.
The nature of experiment [4]: Cytotoxicity against human ovarian cancer cells by SRB assay. To be noted: Cancer cell lines.
Experiment [5] can be described thus: Cytotoxicity against human renal cancer cells by SRB assay. Particulars: Cancer cell lines.

In the case of `C=C(C)[C@@H](O)[C@H](O)C[C@H](C)[C@@H]1CC[C@]23C[C@]12CC[C@@H]1[C@@]2(C)CC[C@@H](OC(C)=O)C(C)(C)[C@@H]2C[C@@H](O[C@@H]2O[C@H](COC(C)=O)[C@@H](O)[C@H](O)[C@H]2O)[C@]13C` [CUMINGIANOSIDE D], the TGI (in general, the concentration giving total growth inhibition) in the experiment on COLO 205 was 12.6 µM; in the experiment on HCC 2998 it was 12.4 µM; in the experiment on HCT-116 it was 9.27 µM; in the experiment with HCT-15, 10.4 µM; in the experiment on HT-29, 8.77 µM; in the experiment on KM12, 11.3 µM. Also, the TGI in the experiment with SW-620 came out at 12 µM; in the experiment on Leukemia cell, 8.2 µM; in the experiment with NSCLC, 11.7 µM; in [1], 11 µM; in experiment [2], 10.9 µM; in experiment [3], 12.2 µM. Moreover, the TGI in experiment [4] and in [5] was 12.7 µM in each case.
As for `CC(=O)OC[C@H]1O[C@@H](O[C@@H]2C[C@H]3C(C)(C)[C@H](OC(C)=O)CC[C@]3(C)[C@H]3CC[C@]45C[C@]4(CC[C@H]5[C@@H](C)C[C@@H](O)[C@H](O)C(C)(C)O)[C@@]32C)[C@H](O)[C@@H](O)[C@@H]1O` [CUMINGIANOSIDE A], the TGI in the experiment with COLO 205 is 14 µM; in the experiment with HCC 2998, 12.9 µM; with HCT-116 it was 13.8 µM; with HCT-15 it was 13.9 µM; with HT-29 it was 14.3 µM; with KM12, 14.2 µM. Moreover, the TGI came out at 14.4 µM with SW-620; 18.5 µM in the experiment with Leukemia cell; 13.1 µM in the experiment with NSCLC; 13.9 µM in experiment [1]; 13.3 µM in [2]; 13.7 µM in experiment [3]. Further, the results for the TGI in experiment [4] and in experiment [5] were 13.6 µM and 13.5 µM, respectively.
Consider `COC(C)(C)[C@@H](O)[C@H](O)C[C@H](C)[C@@H]1CC[C@]23C[C@]12CC[C@@H]1[C@@]2(C)CC[C@@H](OC(C)=O)C(C)(C)[C@@H]2C[C@@H](O[C@@H]2O[C@H](COC(C)=O)[C@@H](O)[C@H](O)[C@H]2O)[C@]13C` [CUMINGIANOSIDE C], for which the TGI with COLO 205 worked out at 11.3 µM; with HCC 2998 it was 4.9 µM; in the experiment with HCT-116 it was 8.7 µM; with HCT-15, 6.3 µM; in the experiment with HT-29 it was 2.5 µM; with KM12, 7.6 µM. Besides, the TGI turned out to be 13.7 µM with SW-620; 11.3 µM with Leukemia cell; 12.4 µM with NSCLC; 7.9 µM in experiment [1]; 11.6 µM in experiment [2]; 12.6 µM in experiment [3]. The TGI in [4] came to 12 µM; in experiment [5], 13.2 µM.
